Converted amounts (≈) assume the structure as drawn. Where a SMILES comes first, the peptide text is derived from it.
Columns and labels:
MDREC 1238 = assay type: cell-based, Escherichia coli
How it was run: (§1)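 Broth microdilution in MH medium: bacterial strains diluted to 2×10^6 CFU were mixed with equal volumes of peptide serially diluted twofold in MH medium.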

MDRPA 2002 = assay type: cell-based, Pseudomonas aeruginosa
How it was run: as §1

MDRPA 2003 = assay type: cell-based, Pseudomonas aeruginosa
How it was run: as §1

MDRAB 12036 = assay type: cell-based, Acinetobacter baumannii
How it was run: as §1

S. typhimurium = assay: microbe, parasite or virus in culture; assay type: cell-based, Salmonella typhimurium
How it was run: as §1

MDRST 8007 = assay: Minimal inhibitory concentration (MIC), single agent; assay type: cell-based, Salmonella typhimurium; details: agent alone
How it was run: as §1

MRSA 3114 = assay type: cell-based, Staphylococcus aureus; details: 3114
How it was run: as §1

MRSA 3126 = assay type: cell-based, Staphylococcus aureus; details: 3126
How it was run: as §1

MDREC 1229 = assay: MIC of antibiotic during combined treatment with antimicrobial peptide; assay type: cell-based, Escherichia coli
How it was run: (§2)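 Antibiotic MIC came from antibiotic dilutions added to bacteria (2×10^6 CFU/ml, MH medium) already combined with peptide serially diluted 2:1 from its own MIC. Swapping the roles of the two agents gave the peptide MIC.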

MDRAB 12035 = assay: as above; assay type: cell-based, Acinetobacter baumannii
How it was run: as §2

[1] = system: multi-drug resistant bacteria; assay: MIC, summary statements for multi-drug resistant bacteria; assay type: cell-based
Method: For the antibacterial activity, a minimal inhibitory concentration (MIC) of a peptide in which fungus bodies were not split in an MH medium with sufficient nutrients was measured.
Specifically, the strains described in the following [Table 2] were purchased and diluted with an MH medium such that the number of bacteria was 2×10^6 colony-forming units (CFUs), 100 μl of each of the diluted strains was aliquoted into a 96-well microtiter plate, and then 100 μl of a peptide solution diluted with the MH medium (solution diluted stepwise at 2: 1) was added to each well.

[2] = peptide treatment concentration 1 μg/ml
[3] = peptide treatment concentration 2 μg/ml
[4] = peptide treatment concentration 4 μg/ml
[5] = peptide treatment concentration 6 μg/ml
[6] = peptide treatment concentration 8 μg/ml
[7] = peptide treatment concentration 16 μg/ml
[8] = peptide treatment concentration 32 μg/ml
[9] = peptide treatment concentration 64 μg/ml

Question: For CC[C@H](C)[C@H](NC(=O)[C@H](CCCCN)NC(=O)[C@H](Cc1c[nH]c2ccccc12)NC(=O)[C@@H](N)CCCNC(=N)N)C(=O)N[C@@H](Cc1ccccc1)C(=O)N[C@@H](CCCCN)C(=O)N[C@@H](CCCCN)C(=O)N[C@H](C(=O)N1CCC[C@H]1C(=O)N[C@@H](CCCCN)C(=O)N[C@@H](CC(C)C)C(=O)N[C@@H](CC(C)C)C(=O)N[C@@H](Cc1c[nH]cn1)C(=O)N[C@@H](CCC(=O)O)C(=O)N[C@@H](C)C(=O)N[C@@H](CCCCN)C(=O)N[C@@H](CCCCN)C(=O)N[C@@H](Cc1c[nH]c2ccccc12)C(N)=O)[C@@H](C)CC [PapMA-13, RWK IFK KIP KLL HEA KKW-NH2] (H-RWKIFKKIPKLLHEAKKW-NH2; N-terminus assumed), which “Minimal inhibitory concentration MIC” value (MDREC 1238) is on record?
Answer: Its value is 16 µg/mL (≈ 6.81 µM).

Question: And the “Minimal inhibitory concentration MIC” value (MDRPA 2002)?
Answer: Its value is 128 µg/mL (≈ 54.5 µM).

Question: And the “Minimal inhibitory concentration MIC” value (MDRPA 2003)?
Answer: Its value is 128 µg/mL (≈ 54.5 µM).

Question: And the “Minimal inhibitory concentration MIC” value (MDRAB 12036)?
Answer: The value was 16 µg/mL (≈ 6.81 µM).

Question: What about the “Minimal inhibitory concentration MIC” value (S. typhimurium) of the same compound?
Answer: Its value is 16 µg/mL (≈ 6.81 µM).

Question: What about the “Minimal inhibitory concentration MIC” value (MDRST 8007) of the same compound?
Answer: Its value is 16 µg/mL (≈ 6.81 µM).

Question: And the “Minimal inhibitory concentration MIC” value (MRSA 3114)?
Answer: The value was over 128 µg/mL.

Question: What about the “Minimal inhibitory concentration MIC” value (MRSA 3126) of the same compound?
Answer: The value was over 128 µg/mL.

Question: What about the “Antibiotic MIC, Erythromycin” value (MDREC 1229; [2]) of the same compound?
Answer: The value was over 128 µg/mL.

Question: What about the “Antibiotic MIC, Linezolid” value (MDREC 1229; [2]) of the same compound?
Answer: The value was over 128 µg/mL.

Question: What about the “Antibiotic MIC, Vancomycin” value (MDREC 1229; [2]) of the same compound?
Answer: The value was over 128 µg/mL.

Question: And the “Antibiotic MIC, Erythromycin” value (MDREC 1229; [3])?
Answer: Its value is 32 µg/mL.

Question: What about the “Antibiotic MIC, Linezolid” value (MDREC 1229; [3]) of the same compound?
Answer: The value was 128 µg/mL.

Question: What about the “Antibiotic MIC, Vancomycin” value (MDREC 1229; [3]) of the same compound?
Answer: Its value is over 128 µg/mL.

Question: What about the “Antibiotic MIC, Erythromycin” value (MDREC 1229; [4]) of the same compound?
Answer: Its value is 8 µg/mL.

Question: What about the “Antibiotic MIC, Linezolid” value (MDREC 1229; [4]) of the same compound?
Answer: The value was 64 µg/mL.

Question: What about the “Antibiotic MIC, Vancomycin” value (MDREC 1229; [4]) of the same compound?
Answer: The value was 64 µg/mL.

Question: And the “Antibiotic MIC, Erythromycin” value (MDREC 1229; [5])?
Answer: Its value is 4 µg/mL.

Question: What about the “Antibiotic MIC, Linezolid” value (MDREC 1229; [5]) of the same compound?
Answer: Its value is 8 µg/mL.

Question: What about the “Antibiotic MIC, Vancomycin” value (MDREC 1229; [5]) of the same compound?
Answer: The value was 16 µg/mL.

Question: What about the “Antibiotic MIC, Erythromycin” value (MDREC 1229; [6]) of the same compound?
Answer: The value was 0.5 µg/mL.

Question: And the “Antibiotic MIC, Linezolid” value (MDREC 1229; [6])?
Answer: Its value is 4 µg/mL.

Question: And the “Antibiotic MIC, Vancomycin” value (MDREC 1229; [6])?
Answer: Its value is 4 µg/mL.

Question: And the “Antibiotic MIC, Erythromycin” value (MDREC 1229; [7])?
Answer: Its value is 0 µg/mL.

Question: And the “Antibiotic MIC, Linezolid” value (MDREC 1229; [7])?
Answer: The value was 0 µg/mL.

Question: And the “Antibiotic MIC, Vancomycin” value (MDREC 1229; [7])?
Answer: Its value is 0 µg/mL.

Question: What about the “Antibiotic MIC, Erythromycin” value (MDREC 1229; [8]) of the same compound?
Answer: The value was 0 µg/mL.

Question: What about the “Antibiotic MIC, Linezolid” value (MDREC 1229; [8]) of the same compound?
Answer: The value was 0 µg/mL.

Question: What about the “Antibiotic MIC, Vancomycin” value (MDREC 1229; [8]) of the same compound?
Answer: The value was 0 µg/mL.

Question: What about the “Antibiotic MIC, Erythromycin” value (MDREC 1229; [9]) of the same compound?
Answer: The value was 0 µg/mL.

Question: And the “Antibiotic MIC, Linezolid” value (MDREC 1229; [9])?
Answer: The value was 0 µg/mL.

Question: What about the “Antibiotic MIC, Vancomycin” value (MDREC 1229; [9]) of the same compound?
Answer: The value was 0 µg/mL.

Question: And the “Erythromycin MIC during combined treatment with peptide” value (MDRAB 12035; [2])?
Answer: The value was 16 µg/mL.

Question: What about the “Linezolid MIC during combined treatment with peptide” value (MDRAB 12035; [2]) of the same compound?
Answer: The value was 128 µg/mL.

Question: And the “Vancomycin MIC during combined treatment with peptide” value (MDRAB 12035; [2])?
Answer: Its value is 128 µg/mL.

Question: What about the “Erythromycin MIC during combined treatment with peptide” value (MDRAB 12035; [3]) of the same compound?
Answer: Its value is 8 µg/mL.

Question: What about the “Linezolid MIC during combined treatment with peptide” value (MDRAB 12035; [3]) of the same compound?
Answer: The value was 32 µg/mL.

Question: What about the “Vancomycin MIC during combined treatment with peptide” value (MDRAB 12035; [3]) of the same compound?
Answer: The value was 64 µg/mL.

Question: And the “Erythromycin MIC during combined treatment with peptide” value (MDRAB 12035; [4])?
Answer: Its value is 4 µg/mL.

Question: And the “Linezolid MIC during combined treatment with peptide” value (MDRAB 12035; [4])?
Answer: Its value is 16 µg/mL.

Question: And the “Vancomycin MIC during combined treatment with peptide” value (MDRAB 12035; [4])?
Answer: Its value is 16 µg/mL.

Question: And the “Erythromycin MIC during combined treatment with peptide” value (MDRAB 12035; [5])?
Answer: Its value is 1 µg/mL.

Question: And the “Linezolid MIC during combined treatment with peptide” value (MDRAB 12035; [5])?
Answer: Its value is 8 µg/mL.

Question: What about the “Vancomycin MIC during combined treatment with peptide” value (MDRAB 12035; [5]) of the same compound?
Answer: Its value is 2 µg/mL.

Question: What about the “Erythromycin MIC during combined treatment with peptide” value (MDRAB 12035; [6]) of the same compound?
Answer: The value was 0.5 µg/mL.

Question: What about the “Linezolid MIC during combined treatment with peptide” value (MDRAB 12035; [6]) of the same compound?
Answer: The value was 2 µg/mL.

Question: What about the “Vancomycin MIC during combined treatment with peptide” value (MDRAB 12035; [6]) of the same compound?
Answer: The value was 1 µg/mL.

Question: And the “Erythromycin MIC during combined treatment with peptide” value (MDRAB 12035; [7])?
Answer: The value was 0 µg/mL.

Question: And the “Linezolid MIC during combined treatment with peptide” value (MDRAB 12035; [7])?
Answer: Its value is 0 µg/mL.

Question: What about the “Vancomycin MIC during combined treatment with peptide” value (MDRAB 12035; [7]) of the same compound?
Answer: Its value is 0 µg/mL.

Question: And the “Erythromycin MIC during combined treatment with peptide” value (MDRAB 12035; [8])?
Answer: Its value is 0 µg/mL.

Question: What about the “Linezolid MIC during combined treatment with peptide” value (MDRAB 12035; [8]) of the same compound?
Answer: Its value is 0 µg/mL.

Question: And the “Vancomycin MIC during combined treatment with peptide” value (MDRAB 12035; [8])?
Answer: Its value is 0 µg/mL.

Question: And the “Erythromycin MIC during combined treatment with peptide” value (MDRAB 12035; [9])?
Answer: The value was 0 µg/mL.

Question: And the “Linezolid MIC during combined treatment with peptide” value (MDRAB 12035; [9])?
Answer: The value was 0 µg/mL.

Question: And the “Vancomycin MIC during combined treatment with peptide” value (MDRAB 12035; [9])?
Answer: The value was 0 µg/mL.

Question: What about the “Antibacterial activity relative to PapMA-1” value [1] of the same compound?
Answer: The value was “twice to four times higher”.

— US11214594B2, “Antimicrobial peptide having synergistic antibacterial effect with antibiotics on multidrug resistant bacteria, and use thereof” (priority 2016, dated 2022)
